# Measurements published in patent US7947854B2, “Bis-cationic compounds and use thereof” (The University of Sydney, priority 2003, dated 2011).
# Marks after values point to notes of the source that are not given here.
# Experiments:
# [1] = system: cytosolic phospholipase B (LPL/LPTA activities); assay: Radiometric assay, cytosolic LPL/LPTA activities; type: biochemical, Cryptococcus neoformans H99; conditions: pH 4
# Description: Fungal isolates and media. […] Isolate H99 was kindly supplied by Dr. Gary Cox (Duke University Medical Center, Durham, N.C., USA), and subcultured onto Sabouraud dextrose agar (SDA) at 30° C.
# Cellular disruption to prepare membrane and cytosolic fractions. The cell pellet from the preparation of the supernatant, above, was also frozen at −70° C. After washing twice with imidazole buffer, it was disrupted in the presence of a protease inhibitor cocktail (P 8215 for fungal and yeast cells; 4-(2-aminoethyl)benzenesulfonyl fluoride hydrochloride, 100 mM, 1,10-phenanthroline, 500 mM, pepstatin A, 2.2 mM, E-64, 1.4 mM; Sigma) in a MiniBeadbeater-8 Cell Disrupter (MBB-8; Daintree Scientific, Tasmania, Australia) for three cycles of 1 min, alternating with a 1 min cooling period on ice. The homogenate was centrifuged at 14,000 g for 15 min to obtain the membrane (pellet) and the cytosolic (supernatant) fractions.
# (§1) Secreted LPL and LPTA activities were measured simultaneously in a reaction mixture containing 1-[^14C]palmitoyl lyso-PC (25,000 dpm) and carrier lyso-PC (final concentration 200 μM) in assay buffer. The reaction time was […] with 1 μg of total protein and LPL activity was measured by the rate of loss of 1-[^14C]palmitoyl lyso-PC with release of radiolabelled fatty acids. LPTA activity was estimated from the rate of formation of radiolabelled PC.
# All reactions were terminated by adding 0.5 mL of chloroform:methanol (2:1 v/v). The reaction products were extracted by the method as disclosed in Bligh, E. C. and W. J. Dyer. 1959 ‘A rapid method of total lipid extraction and purification.’ Can. J. Biochem. Physiol. 37:911-917, separated by TLC and quantified as previously described. In the case of PLC activity, the TLC plates were developed in petroleum ether (BP 60-80° C.): diethyl ether: acetic acid (90:15:1, v/v/v) instead of chloroform:methanol:water (65:25:4, v/v/v).
# All experiments were carried out in duplicate or triplicate. The effects of pH on the various phospholipase activities were measured using 50 mM final concentration of imidazole-acetate buffer (pH range 3-5), MES buffer (pH range 6-8) and glycine buffer (pH 9-10). Controls for non-enzymic breakdown of substrates were included at all pH values. Cations, Triton X-100 and metal chelators were made up as stock solutions in water and diluted to the final concentration in the appropriate assay buffer.
# Preparation of inhibitors and use in assays. The following compounds were tested (for structures, see FIG. 2): compound 1, 1,12-bis(tributylphosphonium)dodecane dibromide (Fluka AG, Buchs, Switzerland); compound 2, 1,10-bis(tributylammonium)-decane dibromide; compound 3, 1,12-bis(tributylammonium)do-decane dibromide (both synthesised in-house); compound 4, 1,10-bis(trimethylammonium)decane dibromide [“decamethonium”] (Sigma, St. Louis Mo., USA). All compounds were prepared as stock solutions of 700 μM in assay buffer containing 5 mM EDTA, which was then diluted serially with buffer to obtain solutions of 70, 7, 0.7 and 0.07 μM. In each assay, 45 μL of these solutions was used, and the final volume of 125 μL was made up of substrate, enzyme and buffer. The radiometric assay was carried out as above. Inhibition was calculated as the percent of substrates (DPPC or Lyso-PC) remaining in the case of PLB and LPL activities, or of DPPC produced, in the case of the LPTA activity. The amounts converted, or produced, in the inhibitor-free control were normalised to 100%, and the inhibition calculated against it. All assays were done in triplicate.
# Under these conditions only PLB, LPL and LPTA activities (both secreted and cell-associated) were measured. Initially, compounds deemed to be potential inhibitors were assayed at 25 and 250 μM.
# [2] = system: C. neoformans strain H99 phospholipases; assay: Inhibition of C. neoformans strain H99 phospholipases (all enzymes and activities); type: biochemical, Cryptococcus neoformans H99
# Description: Radiometric assay method for phospholipases. Enzyme activities were measured as described previously in a final volume of 125 μL at 37° C. For the determination of secreted PLB activity, carrier dipalmitoyl phosphatidylcholine (DPPC, final concentration 800 μM) and 1,2-di[1-^14C] palmitoyl phosphatidylcholine (20,000 dpm) were dried under nitrogen and suspended in 125 mM imidazole acetate buffer (assay buffer, pH 4.0) by sonication using a Branson 450 sonifier. The reaction time was 22 min, using 1 μg total protein and PLB activity was determined by the rate of decrease of the radiolabelled PC substrate, with appearance of the label in free fatty acid. […] These activities were measured by the appearance of radiolabel from PC in Lyso PC, diacylglycerol and phosphatidic acid, respectively.
# as §1, with “LPTA activity was estimated from the rate of formation of radiolabelled PC.” left out
# All reactions were terminated by adding 0.5 mL of chloroform:methanol (2:1 v/v). […] 37:911-917, separated by TLC and quantified as previously described. […]
Structure (SMILES),"% Inhibition LPL, Cytosolic Enzyme ([1]; 2.5 μM) [%]","% Inhibition LPTA, Cytosolic Enzyme ([1]; 2.5 μM) [%]","% Inhibition LPL, Cytosolic Enzyme ([1]; 25 μM) [%]","% Inhibition LPTA, Cytosolic Enzyme ([1]; 25 μM) [%]","% Inhibition LPL, Cytosolic Enzyme ([1]; 250 μM)","% Inhibition LPTA, Cytosolic Enzyme ([1]; 250 μM) [%]","enzyme (phospholipase) inhibition, in words [2]"
"CCCC[P+](CCCC)(CCCC)CCCCCCCCCCCC[P+](CCCC)(CCCC)CCCC [Compound 1, 1,12-bis(tributylphosphonium)dodecane dibromide]",0,0,0,0,12.7* %,0,
"CCCC[N+](CCCC)(CCCC)CCCCCCCCCCCC[N+](CCCC)(CCCC)CCCC [Compound 3, 1,12-bis(tributylammonium)do-decane dibromide]",,,,,,,inhibits
